According to patent publication EP4417602A1, “SUBSTITUTED PYRAZOLE CARBOXAMIDES, SALTS THEREOF AND THEIR USE AS HERBICIDALLY ACTIVE SUBSTANCES” (Bayer AG, priority 2023, dated 2024):

Key:
KCHSC = assay: C. Herbicidal pre-emergence action, weed and crop plants (Tables C); assay type: in vivo, Kochia scoparia; conditions: application rate 320 g/ha; Table C1
Excerpt: (§1) Seeds of mono- and dicotyledonous weed plants and crop plants were sown, in plastic or organic planting pots, in sandy loam and covered with soil. The compounds according to the invention, formulated in the form of wettable powders (WP) or as emulsifiable concentrates (EC), were applied to the surface of the covering soil as aqueous suspension or emulsion, with the addition of 0.5% of an additive, at an application rate of 6001 of water/ha (converted). Following treatment, the pots were placed in a greenhouse and kept under optimum growth conditions for the test plants. The visual grading of the damage to the test plants was carried out after ca. 3 weeks in comparison to untreated controls (herbicidal effect in percent (%): 100% effect = plants have died off, 0% effect = as control plants). Tables C1 to C12 below show the effects of selected compounds of the general formula (I) according to table 1 on various harmful plants and an application rate corresponding to 320 g/ha or below obtained by the experimental procedure mentioned above. Table C1: pre-emergence activity at 320g/ha against KCHSC in %

VIOTR = assay: as above; assay type: in vivo, Viola tricolor; conditions: application rate 320 g/ha; Table C12a
Excerpt: as §1

ZEAMX [1] = assay: D. Pre-emergence effects on crop plants (Tables D); assay type: in vivo, Zea mays; conditions: crop plant
Excerpt: (§2) Seeds of mono- and dicotyledonous weed plants and crop plants were sown, in plastic or organic planting pots, in sandy loam and covered with soil. The compounds according to the invention, formulated in the form of wettable powders (WP) or as emulsifiable concentrates (EC), were applied to the surface of the covering soil as aqueous suspension or emulsion, with the addition of 0.5% of an additive, at an application rate of 6001 of water/ha (converted).
(§3) Following treatment, the pots were placed in a greenhouse and kept under optimum growth conditions for the test plants. The visual grading of the damage to the test plants was carried out after ca. 3 weeks in comparison to untreated controls (herbicidal effect in percent (%): 100% effect = plants have died off, 0% effect = as control plants).
(§4) Tables D1 to D5 below show the effects of various compounds of the general formula (I) according to Table 1 on various crop plants and an application rate corresponding to 320 g/ha or below obtained by the experimental procedure mentioned above in Biological Examples, Section C. Table D1a: pre-emergence activity at 320g/ha against ZEAMX in %

TRZAS [2] = assay: D. Pre-emergence effects on crop plants (Tables D); assay type: in vivo, Triticum aestivum; conditions: crop plant
Excerpt: as §2, §3, §4

GLXMA [3] = assay: D. Pre-emergence effects on crop plants (Tables D); assay type: in vivo, Glycine max; conditions: crop plant
Method in brief: (§5)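 Pre-emergence soil-surface treatment at 320 g/ha or lower, using wettable-powder or emulsifiable-concentrate formulations in water plus 0.5% additive, over freshly sown seeds in covered sandy loam. Damage was rated visually as percent versus untreated pots (100% = dead plants) after about 3 weeks of greenhouse growth.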

BRSNW [4] = assay: D. Pre-emergence effects on crop plants (Tables D); assay type: in vivo, Brassica napus; conditions: crop plant
Method in brief: as §5

ZEAMX [5] = assay: F. Post-emergence effects on crop plants (Tables F); assay type: in vivo, Zea mays; conditions: crop plant
Method in brief: (§6)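 Plants were grown in sandy loam in a greenhouse and sprayed post-emergence at the single-leaf stage, 2–3 weeks after sowing. Visual damage was scored after ca. 3 weeks against untreated controls (0% = as control, 100% = dead).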

TRZAS [6] = assay: as above; assay type: in vivo, Triticum aestivum; conditions: crop plant
Method in brief: as §6

GLXMA [7] = assay: as above; assay type: in vivo, Glycine max; conditions: application rate 320 g/ha, crop plant
Method in brief: as §6

BRSNW [8] = assay: as above; assay type: in vivo, Brassica napus; conditions: application rate 320 g/ha, crop plant
Method in brief: as §6

- pre-emergence activity against ZEAMX (ZEAMX [1]; application rate 80 g/ha, Table D1b): 0%
- pre-emergence activity against ZEAMX (ZEAMX [1]; application rate 320 g/ha, Table D1a): 0%
- pre-emergence activity against TRZAS (TRZAS [2]; application rate 80 g/ha, Table D2b): 0%
- pre-emergence activity against TRZAS (TRZAS [2]; application rate 320 g/ha, Table D2a): 0%
- pre-emergence activity against GLXMA (GLXMA [3]; application rate 80 g/ha, Table D4b): 0%
- pre-emergence activity against GLXMA (GLXMA [3]; application rate 320 g/ha, Table D4a): 0%
Compound: COCc1c(C(=O)N2CCCC2(C)Cc2ccccc2F)cnn1C (single isomer, unassigned) [Example I-066]
- pre-emergence activity against KCHSC (KCHSC): 100%
- pre-emergence activity against VIOTR (VIOTR): 80%
- pre-emergence activity against BRSNW in % (BRSNW [4]; application rate 80 g/ha): 0%
- pre-emergence activity against BRSNW in % (BRSNW [4]; application rate 320 g/ha): 0%
- post-emergence activity against ZEAMX in % (ZEAMX [5]; application rate 80 g/ha): 0%
- post-emergence activity against ZEAMX in % (ZEAMX [5]; application rate 320 g/ha): 0%
- post-emergence activity against TRZAS in % (TRZAS [6]; application rate 80 g/ha): 0%
- post-emergence activity against TRZAS in % (TRZAS [6]; application rate 320 g/ha): 0%
- post-emergence activity against GLXMA in % (GLXMA [7]): 0%
- post-emergence activity against BRSNW in % (BRSNW [8]): 0%
